From PMC4013053, “Identification of Selective Small Molecule Inhibitors of the Nucleotide-Binding Oligomerization Domain 1 (NOD1) Signaling Pathway” (PLoS ONE, 2014)

Experiments:
endogenous NOD1 [1] = biological target: T1, endogenous NOD1 (Homo sapiens, UniProt Q9Y239); experiment: Tri-DAP-stimulated IL-8 release in HCT116 cells; assay type: cell-based; settings: HCT116, increasing compound concentrations 0.005–1 µM, Tri-DAP 0.6–75 µg/mL
T1 construct: Compound activity on endogenous NOD1 and NOD2 receptors was determined; host or cells: HCT116
T1 sequence (Q9Y239 1-953): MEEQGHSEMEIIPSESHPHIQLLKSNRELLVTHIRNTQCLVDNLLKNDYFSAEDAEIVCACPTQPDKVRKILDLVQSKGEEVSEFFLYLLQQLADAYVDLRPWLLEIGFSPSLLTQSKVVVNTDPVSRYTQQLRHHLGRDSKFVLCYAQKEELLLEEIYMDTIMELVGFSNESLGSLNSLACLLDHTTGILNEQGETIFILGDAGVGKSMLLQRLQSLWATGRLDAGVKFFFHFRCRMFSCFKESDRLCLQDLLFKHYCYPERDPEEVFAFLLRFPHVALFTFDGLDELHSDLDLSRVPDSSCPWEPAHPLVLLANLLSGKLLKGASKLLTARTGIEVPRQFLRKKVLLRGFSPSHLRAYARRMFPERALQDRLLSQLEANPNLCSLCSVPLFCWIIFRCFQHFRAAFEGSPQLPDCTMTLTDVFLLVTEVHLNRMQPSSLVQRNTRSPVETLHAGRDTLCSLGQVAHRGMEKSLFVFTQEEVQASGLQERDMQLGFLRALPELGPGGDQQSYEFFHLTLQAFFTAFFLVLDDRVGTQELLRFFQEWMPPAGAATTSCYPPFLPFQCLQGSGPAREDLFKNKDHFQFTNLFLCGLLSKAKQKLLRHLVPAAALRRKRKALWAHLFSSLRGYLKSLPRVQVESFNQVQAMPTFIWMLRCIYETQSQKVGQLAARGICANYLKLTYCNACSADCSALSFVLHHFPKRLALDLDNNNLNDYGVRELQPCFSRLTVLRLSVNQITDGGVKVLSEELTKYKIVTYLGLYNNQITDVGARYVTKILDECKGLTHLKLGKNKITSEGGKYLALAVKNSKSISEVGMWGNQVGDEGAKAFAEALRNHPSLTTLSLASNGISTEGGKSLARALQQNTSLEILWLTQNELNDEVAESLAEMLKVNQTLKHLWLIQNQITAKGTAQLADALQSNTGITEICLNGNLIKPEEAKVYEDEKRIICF

endogenous NOD1 [2] = biological target: T1, endogenous NOD1; experiment: Tri-DAP-stimulated IL-8 release in HCT116 cells; assay type: cell-based; settings: for IC50: human colon carcinoma cells, IL-8 released into medium; for inhibition of Tri-DAP-stimulated IL-8 secretion: HCT116, increasing concentrations (16 nM–16 µM)
Description: (§1) For assay, cells were seeded into 96 well plates (90,000 cells/well) in DMEM containing 1% FBS and pre-incubated with compounds for 1 hour before addition of either 25 µg/mL Tri-DAP or 1 µg/mL MDP. The level of IL-8 released into medium after 24-hour incubation was determined by HTRF assay (Cisbio) as described above and fluorescence measured on an Envision model 2102 multilabel plate reader (Perkin Elmer). The activity of compounds against NOD1-induced type I interferon response was determined by inhibition of Tri-DAP stimulated IP-10 secretion in HT-29 cells, maintained in the same medium as for HCT116 cells. The HT-29 cells were seeded into 96 well plates (60,000 cells/well) in DMEM with 1% FBS, pre-incubated with compounds for 1 hour and stimulated for 24 hours with 50 µg/mL Tri-DAP. The concentration of IL-8 released into the medium was measured by HTRF as above, IP-10 was measured using the IP-10/CXCL10 Quantikine ELISA kit (R&D Systems), and IFNβ was measured using the MA6000 human IFN-β tissue culture kit (Meso Scale Discovery).

[3] = Immobilized artificial membrane (IAM) binding; assay type: physicochemical
Text: Physicochemical analyses of compounds were completed at GSK.

NOD1 [4] = experiment: Tri-DAP stimulated IL-8 release in HT-29 cells; assay type: cell-based, human; settings: HT-29, 50 µg/mL Tri-DAP 24 hours, same supernatants
Description: as §1

NOD2 = NOD2 (Homo sapiens, UniProt Q9HC29); experiment: MDP-stimulated IL-8 release in 293/hNOD2 cells; assay type: cell-based; settings: HEK293 stably expressing human NOD2, IL-8 released into medium
murine NOD1 = experiment: NOD1 stimulated KC (CXCL1) production in murine bone marrow derived macrophages; assay type: cell-based, mouse; settings: murine BMDM, 25 µg/mL FK156 or Tri-DAP, 24 hours
Description: C57BL/6 mice were obtained from the Jackson Laboratories. Bone marrow was flushed from the femurs and tibiae of adult (∼3 month old) mice with serum-free DMEM medium using a 23-gauge needle and syringe. A fine cell suspension was obtained by gentle aspiration and passage through a […] cell strainer. After centrifugation and re-suspending in DMEM supplemented with 10%HI-FBS, the mononuclear cells obtained from each animal were plated into the central 60 wells of a 96-well plate. After 24 hours, the medium and non-adherent cells were removed and replaced with DMEM with 10%HI-FBS containing 10 ng/mL M-CSF and the cells cultured for 1 week with two additional medium changes. After this time the medium was aspirated and the cells pre-treated with compounds for 1 hour and then stimulated for 24 hours with either 25 µg/mL Tri-DAP or FK156. Each treatment was performed in triplicate wells. The concentration of murine KC (CXCL1) together with 6 other cytokines/chemokines present in conditioned medium was then determined using the murine pro-inflammatory 7-plex assay (Meso Scale Discovery).

NOD1 [5] = biological target: T2, NOD1 (Homo sapiens, UniProt Q9Y239); experiment: Tri-DAP-stimulated IL-8 secretion in primary human monocytes; assay type: cell-based; parameters: Monocytes were purified from heparinized human whole blood; endogenous in cells; host or cells: primary human blood monocytes; settings: human primary peripheral blood monocytes, IL-8 released into medium; read-out: IC50 Monocyte Tri-DAP
T2 sequence (Q9Y239 1-953): T1 sequence (Q9Y239 1-953)
Description: Monocytes were purified from heparinized human whole blood by centrifugation on Ficoll (Histopaque 1077) followed by Percoll gradients. Monocyte purity was >95% by morphological assessment of Wright’s stained cytospins. Cells were seeded at 100,000 per well in 96-well plates in RPMI containing 10%HI-FBS, pre-incubated for 1 hour with compounds, and then stimulated with either 25 µg/mL Tri-DAP or 1 µg/mL MDP. The concentration of IL-8 in medium samples collected after 24-hour treatment was determined by HTRF whereas IL-1β, IL-6 and TNFα were measured using the MS6000 human pro-inflammatory-4 II tissue culture kit (Meso Scale Discovery).

[6] = tested on: NOD1-induced type I interferon response; experiment: Tri-DAP stimulated IP-10 secretion in HT-29 cells; assay type: cell-based; settings: Homo sapiens; HT-29, 50 µg/mL Tri-DAP 24 hours
Description: as §1

endogenous NOD2 = biological target: T3, endogenous NOD2 (Homo sapiens, UniProt Q9HC29); experiment: MDP-stimulated IL-8 release in HCT116 cells; assay type: cell-based; settings: for IC50: human colon carcinoma cells, IL-8 released into medium
T3 construct: Compound activity on endogenous NOD1 and NOD2 receptors was determined; host or cells: HCT116
Description: as §1

NOD1 [7] = tested on: NOD1; parameters: method as in PMID 22870324; settings: human lung microvascular endothelial cells, 10 µg/mL iE-DAP; cited from earlier work

T3 sequence (Q9HC29 whole entry): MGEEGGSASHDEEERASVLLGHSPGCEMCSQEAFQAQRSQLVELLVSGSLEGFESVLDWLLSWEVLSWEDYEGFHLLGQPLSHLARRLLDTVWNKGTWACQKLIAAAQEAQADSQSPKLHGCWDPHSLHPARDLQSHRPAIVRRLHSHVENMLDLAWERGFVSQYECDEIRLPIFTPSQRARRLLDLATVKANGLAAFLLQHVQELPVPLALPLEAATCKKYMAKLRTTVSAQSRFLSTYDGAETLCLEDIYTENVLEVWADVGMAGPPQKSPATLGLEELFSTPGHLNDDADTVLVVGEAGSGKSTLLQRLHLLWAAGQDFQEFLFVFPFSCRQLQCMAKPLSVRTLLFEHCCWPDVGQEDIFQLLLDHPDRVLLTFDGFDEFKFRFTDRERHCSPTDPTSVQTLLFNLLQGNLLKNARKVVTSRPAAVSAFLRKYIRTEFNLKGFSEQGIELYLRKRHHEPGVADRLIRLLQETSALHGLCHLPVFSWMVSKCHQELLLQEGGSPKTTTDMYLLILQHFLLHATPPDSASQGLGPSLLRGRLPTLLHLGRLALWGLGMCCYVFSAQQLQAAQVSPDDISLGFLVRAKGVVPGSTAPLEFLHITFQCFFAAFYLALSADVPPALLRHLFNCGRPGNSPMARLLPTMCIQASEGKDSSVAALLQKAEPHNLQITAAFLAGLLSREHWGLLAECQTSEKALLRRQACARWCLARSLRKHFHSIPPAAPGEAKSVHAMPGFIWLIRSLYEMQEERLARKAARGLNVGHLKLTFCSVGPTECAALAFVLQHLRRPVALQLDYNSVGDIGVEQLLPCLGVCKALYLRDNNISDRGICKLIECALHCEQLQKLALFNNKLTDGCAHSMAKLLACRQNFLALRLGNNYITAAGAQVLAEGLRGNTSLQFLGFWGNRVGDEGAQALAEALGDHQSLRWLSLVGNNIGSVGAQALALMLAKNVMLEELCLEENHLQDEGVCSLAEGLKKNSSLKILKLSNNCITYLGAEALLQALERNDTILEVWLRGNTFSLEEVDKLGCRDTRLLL
NOD2, sequence (Q9HC29 whole entry): as above

Structure (SMILES)	effect on Tri-DAP concentration response (IL-8) (endogenous NOD1 [1])	IC50 (endogenous NOD1 [2]) [µM]	IAM binding [3] [log K]	IC50 (NOD1 [4]) [µM]	IC50 (NOD2) [µM]	inhibition of FK156 or Tri-DAP-stimulated KC production (murine NOD1)	IC50 (NOD1 [5]) [µM]	IC50 [6] [µM]	IC50 (endogenous NOD2) [µM]	effect on IL-8 secretion, iE-DAP stimulated (NOD1 [7])	inhibition of Tri-DAP-stimulated IL-8 secretion (endogenous NOD1 [2])	greatest inhibition of MDP-stimulated IL-8 release (endogenous NOD2; HCT116, at high concentrations) [%]
Cc1ccc(S(=O)(=O)Nc2cccc(C(=O)Nc3ccc4nc(C)sc4c3)c2)cc1 [Compound 16]	progressive reduction in both the apparent EC50 and maximum response of Tri-DAP	0.06	2.45	0.04	> 30	partial inhibition at best	0.2	0.25	–	–	–	–
Cc1nc2ccccc2c(=O)n1-c1ccc(Cl)c(NS(=O)(=O)c2ccccc2F)c1 [Compound 22]	progressive reduction in both the apparent EC50 and maximum response of Tri-DAP	0.03	–	0.03	> 50	little or no inhibitory activity	0.06	0.08	> 15	inhibited IL-8 secretion	–	–
CCc1ccc(S(=O)(=O)Nc2cc(-n3c(C)nc4ccccc4c3=O)ccc2F)s1 [GSK223]	–	0.4	1.68	–	> 50	–	1	–	> 50	–	complete inhibition	30
Cc1nc2ccc(NC(=O)c3cccc(NS(=O)(=O)c4ccc(F)cc4)c3)cc2s1 [GSK966]	–	0.7	2.38	–	–	–	2	–	–	–	complete inhibition	–
Cn1c(=O)[nH]c(=O)c2c1nc(CCSc1ccccc1)n2Cc1ccccc1 [SB711]	–	0.9	2.41	–	> 50	–	3.2	–	> 50	–	complete inhibition	–
